Test results as given in ChEMBL document CHEMBL3044926, “Controlling powdery mildew on cucurbit rootstock seedlings in the greenhouse with fungicides and biofungicides” (Crop Prot, 2012).

How the values were obtained:
Lagenaria siceraria [1] = test: Phytotoxicity against Lagenaria siceraria 'Emphasis' rootstock seedlings assessed as stunting; assay type: organism-based; conditions: in vivo
[2] = tested on: Cucurbita maxima x Cucurbita moschata; test: Phytotoxicity against inter-specific squash hybrid Cucurbita moschata x Cucurbita maxima (Strong tosa) rootstock seedlings assessed as stunting; assay type: organism-based; conditions: in vivo
Lagenaria siceraria [3] = test: Phytotoxicity against Lagenaria siceraria 'Emphasis' rootstock seedlings; assay type: organism-based; conditions: in vivo
[4] = tested on: Cucurbita maxima x Cucurbita moschata; test: Phytotoxicity against inter-specific squash hybrid Cucurbita moschata x Cucurbita maxima (Strong tosa) rootstock seedlings; assay type: organism-based; conditions: in vivo
Podosphaera xanthii [5] = test: (§1) Fungicidal activity against Podosphaera xanthii (powdery mildew) inoculated in inter-specific squash hybrid Strong tosa (Cucurbita moschata x Cucurbita maxima) rootstock seedlings for 7 days prior to drug application assessed as disease severity on lower surface areas of cotyledonsat 40% in 0.37 ml/L applied once measured 7 days post-drug dose under greenhouse conditions (water Rvb = 5.1%); assay type: functional
Podosphaera xanthii [6] = test: (§2) Fungicidal activity against Podosphaera xanthii (powdery mildew) inoculated in Lagenaria siceraria Emphasis continuously after first drug application assessed as incidence of disease symptoms on hypocotyls or upper or lower sides of cotyledons at 40% in 0.37 ml/L applied thrice at 5-days intervals measured 5 days after third application under green house conditions (water Rvb = 100%); assay type: functional
Podosphaera xanthii [7] = test: as §2, with “as” for “as incidence of”, “severity” for “symptoms”, “on” for “on hypocotyls or”, “surface areas” for “or lower sides”, “36.8%)” for “100%)”; assay type: functional
Podosphaera xanthii [8] = test: Fungicidal activity against Podosphaera xanthii (powdery mildew) inoculated in inter-specific squash hybrid Strong tosa (Cucurbita moschata x Cucurbita maxima) rootstock seedlings for 7 days prior to drug application assessed as incidence of disease symptoms on hypocotyls or upper or lower sides of cotyledons at 40% in 0.37 ml/L applied once measured 7 days post-drug dose under greenhouse …; assay type: functional
Podosphaera xanthii [9] = test: as §2, with “as” for “as incidence of”, “severity” for “symptoms on hypocotyls or upper or lower sides of cotyledons”, “53.5%)” for “100%)”; assay type: functional
[10] = tested on: Cucurbita maxima x Cucurbita moschata; test: Phytotoxicity against inter-specific squash hybrid Cucurbita moschata x Cucurbita maxima (Strong tosa) rootstock seedlings assessed as stunted growth; assay type: organism-based; conditions: in vivo
Podosphaera xanthii [11] = test: as §2, with “as” for “as incidence of”, “severity” for “symptoms”, “on” for “on hypocotyls or upper or”, “surface areas” for “sides”, “13.9%)” for “100%)”; assay type: functional
Podosphaera xanthii [12] = test: as §1, with “at” for “on lower surface areas of cotyledonsat”, “17.5%)” for “5.1%)”; assay type: functional
Podosphaera xanthii [13] = test: as §1, with “upper” for “lower”, “10.2%)” for “5.1%)”; assay type: functional
Podosphaera xanthii [14] = test: Fungicidal activity against Podosphaera xanthii (powdery mildew) inoculated in squash (Cucurbita pepo) rootstock seedlings continuously after first drug application assessed as incidence of disease symptoms on hypocotyls or upper or lower sides of cotyledons at 40% in 0.37 ml/L applied thrice at 5-days intervals measured 5 days after third application under green house conditions (water Rvb = …; assay type: functional
Podosphaera xanthii [15] = test: (§3) Fungicidal activity against Podosphaera xanthii (powdery mildew) inoculated in squash (Cucurbita pepo) rootstock seedlings continuously after first drug application assessed as disease severity at 40% in 0.37 ml/L applied thrice at 5-days intervals measured 5 days after third application under green house conditions (water Rvb = 3.9%); assay type: functional
Lagenaria siceraria [16] = test: Phytotoxicity against Lagenaria siceraria 'Emphasis' rootstock seedlings assessed as stunted growth; assay type: organism-based; conditions: in vivo
Podosphaera xanthii [17] = test: as §1, with “upper” for “lower”, “20.6%” for “40%”, “1.36” for “0.37”, “10.2%)” for “5.1%)”; assay type: functional
Podosphaera xanthii [18] = test: as §1, with “20.6%” for “40%”, “1.36” for “0.37”; assay type: functional
Podosphaera xanthii [19] = test: Fungicidal activity against Podosphaera xanthii (powdery mildew) inoculated in inter-specific squash hybrid Strong tosa (Cucurbita moschata x Cucurbita maxima) rootstock seedlings for 7 days prior to drug application assessed as incidence of disease symptoms on hypocotyls or upper or lower sides of cotyledons at 20.6% in 1.36 ml/L applied once measured 7 days post-drug dose under greenhouse …; assay type: functional
Podosphaera xanthii [20] = test: as §1, with “at 20.6%” for “on lower surface areas of cotyledonsat 40%”, “1.36” for “0.37”, “17.5%)” for “5.1%)”; assay type: functional
Podosphaera xanthii [21] = test: (§4) Fungicidal activity against Podosphaera xanthii (powdery mildew) inoculated in Lagenaria siceraria Emphasis continuously after first drug application assessed as disease severity on lower surface areas of cotyledons at 20.6% in 1.36 ml/L applied thrice at 5-days intervals measured 5 days after third application under green house conditions (water Rvb = 13.9%); assay type: functional
Podosphaera xanthii [22] = test: as §2, with “20.6%” for “40%”, “1.36” for “0.37”; assay type: functional
Podosphaera xanthii [23] = test: Fungicidal activity against Podosphaera xanthii (powdery mildew) inoculated in squash (Cucurbita pepo) rootstock seedlings continuously after first drug application assessed as incidence of disease symptoms on hypocotyls or upper or lower sides of cotyledons at 20.6% in 1.36 ml/L applied thrice at 5-days intervals measured 5 days after third application under green house conditions (water Rvb = …; assay type: functional
Podosphaera xanthii [24] = test: as §4, with “severity” for “severity on lower surface areas of cotyledons”, “53.5%)” for “13.9%)”; assay type: functional
Podosphaera xanthii [25] = test: as §4, with “upper” for “lower”, “36.8%)” for “13.9%)”; assay type: functional
Podosphaera xanthii [26] = test: as §3, with “20.6%” for “40%”, “1.36” for “0.37”; assay type: functional
Podosphaera xanthii [27] = test: as §1, with “22.58%” for “40%”, “0.47ml/L” for “0.37 ml/L”; assay type: functional
Podosphaera xanthii [28] = test: Fungicidal activity against Podosphaera xanthii (powdery mildew) inoculated in inter-specific squash hybrid Strong tosa (Cucurbita moschata x Cucurbita maxima) rootstock seedlings for 7 days prior to drug application assessed as incidence of disease symptoms on hypocotyls or upper or lower sides of cotyledons at 22.58% in 0.47ml/L applied once measured 7 days post-drug dose under greenhouse …; assay type: functional
[29] = tested on: Cucurbita maxima x Cucurbita moschata; test: Phytotoxicity against inter-specific squash hybrid Cucurbita moschata x Cucurbita maxima (Strong tosa) rootstock seedlings assessed as severe chlorosis or necrosis on cotyledons; assay type: organism-based; conditions: in vivo
Podosphaera xanthii [30] = test: Fungicidal activity against Podosphaera xanthii (powdery mildew) inoculated in squash (Cucurbita pepo) rootstock seedlings continuously after first drug application assessed as incidence of disease symptoms on hypocotyls or upper or lower sides of cotyledons at 22.58% in 0.47ml/L applied thrice at 5-days intervals measured 5 days after third application under green house conditions (water Rvb = …; assay type: functional
Podosphaera xanthii [31] = test: as §1, with “upper” for “lower”, “22.58%” for “40%”, “0.47ml/L” for “0.37 ml/L”, “10.2%)” for “5.1%)”; assay type: functional
Podosphaera xanthii [32] = test: as §1, with “at 22.58%” for “on lower surface areas of cotyledonsat 40%”, “0.47ml/L” for “0.37 ml/L”, “17.5%)” for “5.1%)”; assay type: functional
Lagenaria siceraria [33] = test: Phytotoxicity against Lagenaria siceraria 'Emphasis' rootstock seedlings assessed as severe chlorosis or necrosis on cotyledons; assay type: organism-based; conditions: in vivo
Podosphaera xanthii [34] = test: as §3, with “22.58%” for “40%”, “0.47ml/L” for “0.37 ml/L”; assay type: functional

For `OO` [HYDROGEN PEROXIDE], the Activity (Lagenaria siceraria [1]) was “Non-toxic”, the Activity [2] was “Non-toxic” and the Activity (Lagenaria siceraria [3]) was “Non-toxic”. For the same compound, the Activity [4] was “Non-toxic”.
For `CCCCC(C#N)(Cn1cncn1)c1ccc(Cl)cc1` (stereo not given) [MYCLOBUTANIL], the Activity (Podosphaera xanthii [5]) was 0.02%, the Activity (Podosphaera xanthii [6]) was 65.1% and the Activity (Podosphaera xanthii [7]) was 3.1%. For the same compound, the Activity (Podosphaera xanthii [8]) was 2.3%, the Activity (Podosphaera xanthii [9]) was 4.1% and the “inhibition (INH)” value [10] was 33%. The Activity (Podosphaera xanthii [11]) was 0.9%, the Activity (Podosphaera xanthii [12]) was 0.1% and the Activity (Podosphaera xanthii [13]) was 0.08%. The Activity (Podosphaera xanthii [14]) was 0%, the Activity (Podosphaera xanthii [15]) was 0% and the “inhibition (INH)” value (Lagenaria siceraria [16]) was 33%.
Work on `CC(C)CC(C)c1sccc1NC(=O)c1cn(C)nc1C(F)(F)F` (stereo not given) [PENTHIOPYRAD] yielded an Activity (Podosphaera xanthii [17]) of 0%, an Activity (Podosphaera xanthii [18]) of 0.03% and an Activity (Podosphaera xanthii [19]) of 2.3%. The Activity (Lagenaria siceraria [1]) was “Toxic”, the Activity (Podosphaera xanthii [20]) was 0.05% and the Activity (Podosphaera xanthii [21]) was 0.3%. The Activity (Podosphaera xanthii [22]) was 14.6%, the Activity (Podosphaera xanthii [23]) was 0% and the Activity [2] was “Toxic”. The Activity (Podosphaera xanthii [24]) was 1.3%, the Activity (Podosphaera xanthii [25]) was 0.9% and the Activity (Podosphaera xanthii [26]) was 0%.
In the case of `O=C([O-])O.[K+]` [POTASSIUM BICARBONATE], the Activity (Lagenaria siceraria [1]) is reported as “Non-toxic”, the Activity [2] is reported as “Non-toxic” and the Activity (Lagenaria siceraria [3]) is reported as “Non-toxic”. The Activity [4] was “Non-toxic”.
`Fc1ccc(Oc2ccnc3cc(Cl)cc(Cl)c23)cc1` [QUINOXYFEN] was tested, and the Activity (Podosphaera xanthii [27]) was 0.3%, the Activity (Podosphaera xanthii [28]) was 14.6% and the Activity [29] was “Toxic”. It also gave an Activity (Podosphaera xanthii [30]) of 23.4%, an Activity (Podosphaera xanthii [31]) of 1.2% and an Activity (Podosphaera xanthii [32]) of 1.8%. For the same compound, the Activity (Lagenaria siceraria [33]) was “Toxic” and the Activity (Podosphaera xanthii [34]) was 0.43%.
